{
  "source": "patent US4092315A",
  "about": "“Novel crystalline forms of prazosin hydrochloride” (Pfizer Inc., priority 1976, dated 1978)",
  "assay_type_in_all_cases": "physicochemical",
  "key": {"[1]": {"assay": "Moisture uptake of anhydrate, monohydrate and dihydrate at room temperature, 75% relative humidity", "protocol": "When samples of the anhydrate and monohydrate are stored at room temperature and 75% relative humidity they absorb moisture rapidly to form the dihydrate (8% water) in about 24 hours."}, "[2]": {"assay": "Compressed disc (intrinsic) dissolution in water at 37° C.", "conditions": "slope between 4 and 10 minutes, 150 rpm, hydrochloride", "protocol": "Compressed disc dissolution studies were carried out by means of the procedure developed by Hamlin et al., J. Pharm, Sci., 51, 432(1962). A 300 mg. sample of powder was compressed against a flat surface at 3000 psi. for 2 minutes into a flat round disc using a tablet die of 7/16 inch diameter. The die holding the compressed disc was stoppered at the open end and placed into a plastic holder. This assembly was then placed into a jar containing 1000 ml. of water equilibrated at 37° C. The stirring rate of a teflon paddle centered in the jar was maintained at 150 revolutions per minute. The solution was pumped continuously through a Millipore filter ([…] pore size) into a flow cell of a Beckman Acta II spectrophotometer which automatically recorded any absorbance changes at 246 nm.\nTable VI compares the intrinsic dissolution rates of various forms of prazosin hydrochloride. The rates were determined from the slopes of the compressed disc dissolution profiles between 4 and 10 minutes."}, "[3]": {"assay": "Hygroscopicity: water content (Karl Fischer) of samples on exposure to humidity", "conditions": "for Water Content: 37° C.; for hygroscopicity (in words): compared with the other forms", "protocol": "Since moisture uptake affects integrity of a drug form, the α-, β- and γ- crystalline polymorphs of prazosin hydrochloride were compared for their relative hygroscopicity. Samples of each polymorph were placed in an open beaker and stored in a chamber maintained at 37° C. and 75% relative humidity. Portions were withdrawn periodically and their water content determined by the Karl Fischer method."}, "[4]": {"assay": "Hygroscopicity: water content (Karl Fischer) of samples on exposure to humidity", "conditions": "room temperature, 20% relative humidity, initially 13.5% water"}, "[5]": {"assay": "Conversion to hydrate on contact with water (microscopy, trituration)", "conditions": "drop of water on microscope slide or excess of water, hydrochloride", "text": "When samples of the α-, β- and γ- polymorphs are triturated with water the resulting product in each case is found to give an infrared spectrum identical to that of the prazosin hydrochloride hydrates.\nThe β-form consisted of dark, monoclinic crystals, while the γ-form and polyhydrate are both needle-like crystals.\nThis is in agreement with the above mentioned change in the infrared spectra of the α-, β-, γ- polymorphs to that of the hydrates of prazosin hydrochloride upon trituration of each of the crystalline polymorphs with water. Stability Studies"}, "[6]": {"conditions": "5 days, 75% R.H., hydrochloride"}, "[7]": {"conditions": "12 days, 75% R.H., hydrochloride"}, "[8]": {"conditions": "25 days, 75% R.H., hydrochloride"}, "[9]": {"conditions": "34 days, 75% R.H., hydrochloride"}},
  "note": "Entries after “also recorded” stand apart in the source; their conditions may differ.",
  "data": [
    {"molecule": "COc1cc2nc(N3CCN(C(=O)c4ccco4)CC3)nc(N)c2cc1OC.Cl", "note": "[dihydrate, 2-[4-(2-furoyl)piperazin-1-yl]-4-amino-6,7-dimethoxyquinazoline hydrochloride]", "values": [
      {"measurement": "equilibrium water content", "setting": "[1]; after 4 days, room temperature, 75% relative humidity", "result": 13.5, "unit": "%"}
    ]},
    {"molecule": "COc1cc2nc(N3CCN(C(=O)c4ccco4)CC3)nc(N)c2cc1OC.Cl", "note": "[monohydrate, 2-[4-(2-furoyl)piperazin-1-yl]-4-amino-6,7-dimethoxyquinazoline hydrochloride]", "values": [
      {"measurement": "reversion upon exposure to moist air (in words)", "setting": "[1]; exposure to moist air", "result": "revert to polyhydrate"}
    ]},
    {"molecule": "COc1cc2nc(N3CCN(C(=O)c4ccco4)CC3)nc(N)c2cc1OC.Cl", "note": "[anhydrate, 2-[4-(2-furoyl)piperazin-1-yl]-4-amino-6,7-dimethoxyquinazoline hydrochloride]", "values": [
      {"measurement": "water content on storage (dihydrate formed)", "setting": "[1]; about 24 hours, room temperature, 75% relative humidity", "result": 8, "unit": "%"},
      {"measurement": "time to form the dihydrate", "setting": "[1]; room temperature, 75% relative humidity", "result": "about 24 hours"},
      {"measurement": "Intrinsic Dissolution Rate", "setting": "[2]; listed as Anhydrate", "result": 2.35, "unit": "μg/liter sec."}
    ]},
    {"molecule": "COc1cc2nc(N3CCN(C(=O)c4ccco4)CC3)nc(N)c2cc1OC.Cl", "note": "[polyhydrate, 2-[4-(2-furoyl)piperazin-1-yl]-4-amino-6,7-dimethoxyquinazoline hydrochloride]", "values": [
      {"measurement": "Water Content", "setting": "[3]; 10 days, 75% relative humidity, initially 13.7% water", "result": 13.2, "unit": "%"},
      {"measurement": "Water Content", "setting": "[3]; 23 days, 75% relative humidity, initially 13.7% water", "result": 13.4, "unit": "%"},
      {"measurement": "moisture", "setting": "[3]; other samples exposed to high humidity", "result": "up to 15%"},
      {"measurement": "Intrinsic Dissolution Rate", "setting": "[2]; listed as Polyhydrate", "result": 2.57, "unit": "μg/liter sec."},
      {"measurement": "Water Content", "setting": "[4]; 18 days", "result": 13.0, "unit": "%"},
      {"measurement": "Water Content", "setting": "[4]; 35 days", "result": 13.1, "unit": "%"}
    ]},
    {"molecule": "COc1cc2nc(N3CCN(C(=O)c4ccco4)CC3)nc(N)c2cc1OC.Cl", "note": "[β-form, 2-[4-(2-furoyl)piperazin-1-yl]-4-amino-6,7-dimethoxyquinazoline hydrochloride]", "values": [
      {"measurement": "Water Content", "setting": "[3]; [6]", "result": 0.59, "unit": "% by Weight"},
      {"measurement": "Water Content", "setting": "[3]; [7]", "result": 1.18, "unit": "% by Weight"},
      {"measurement": "Water Content", "setting": "[3]; [8]", "result": 4.66, "unit": "% by Weight"},
      {"measurement": "Water Content", "setting": "[3]; [9]", "result": 6.06, "unit": "% by Weight"},
      {"measurement": "hygroscopicity (in words)", "setting": "[3]; hydrochloride", "result": "hygroscopic"},
      {"measurement": "Intrinsic Dissolution Rate", "setting": "[2]; listed as β-", "result": 3.36, "unit": "μg/liter sec."},
      {"measurement": "conversion to hydrate on contact with water (in words)", "setting": "[5]; listed as β-", "result": "sharp needle-like crystals of hydrate grew"}
    ]},
    {"molecule": "COc1cc2nc(N3CCN(C(=O)c4ccco4)CC3)nc(N)c2cc1OC.Cl", "note": "[methanolate, 2-[4-(2-furoyl)piperazin-1-yl]-4-amino-6,7-dimethoxyquinazoline hydrochloride]", "values": [
      {"measurement": "Intrinsic Dissolution Rate", "setting": "[2]; listed as Methanolate", "result": 2.68, "unit": "μg/liter sec."}
    ]},
    {"molecule": "COc1cc2nc(N3CCN(C(=O)c4ccco4)CC3)nc(N)c2cc1OC.Cl", "note": "[α-form, 2-[4-(2-furoyl)piperazin-1-yl]-4-amino-6,7-dimethoxyquinazoline hydrochloride]", "values": [
      {"measurement": "Water Content", "setting": "[3]; [6]", "result": 0.32, "unit": "% by Weight"},
      {"measurement": "Water Content", "setting": "[3]; [7]", "result": 0.85, "unit": "% by Weight"},
      {"measurement": "Water Content", "setting": "[3]; [8]", "result": 1.18, "unit": "% by Weight"},
      {"measurement": "Water Content", "setting": "[3]; [9]", "result": 1.54, "unit": "% by Weight"},
      {"measurement": "hygroscopicity (in words)", "setting": "[3]; hydrochloride", "result": "relatively non-hydroscopic when compared with the β- and γ-forms; also recorded: non-hygroscopic"},
      {"measurement": "Intrinsic Dissolution Rate", "setting": "[2]; listed as α-", "result": 3.25, "unit": "μg/liter sec."},
      {"measurement": "conversion to hydrate on contact with water (in words)", "setting": "[5]", "result": "converted to the polyhydrate"},
      {"measurement": "conversion to hydrate on contact with water (in words)", "setting": "[5]; listed as α-", "result": "sharp needle-like crystals of hydrate grew"}
    ]},
    {"molecule": "COc1cc2nc(N3CCN(C(=O)c4ccco4)CC3)nc(N)c2cc1OC.Cl", "note": "[γ-form, 2-[4-(2-furoyl)piperazin-1-yl]-4-amino-6,7-dimethoxyquinazoline hydrochloride]", "values": [
      {"measurement": "Water Content", "setting": "[3]; [6]", "result": 0.16, "unit": "% by Weight"},
      {"measurement": "Water Content", "setting": "[3]; [7]", "result": 4.61, "unit": "% by Weight"},
      {"measurement": "Water Content", "setting": "[3]; [8]", "result": 9.47, "unit": "% by Weight"},
      {"measurement": "Water Content", "setting": "[3]; [9]", "result": 9.05, "unit": "% by Weight"},
      {"measurement": "hygroscopicity (in words)", "setting": "[3]; hydrochloride", "result": "more hygroscopic then the β-form"},
      {"measurement": "change of form on exposure to moisture (in words)", "setting": "[3]; infrared spectrum (KBr) after exposure to moisture", "result": "formation of a hydrate"},
      {"measurement": "Intrinsic Dissolution Rate", "setting": "[2]; listed as γ-", "result": 2.35, "unit": "μg/liter sec."},
      {"measurement": "conversion to hydrate on contact with water (in words)", "setting": "[5]; listed as γ-forms", "result": "sharp needle-like crystals of hydrate grew"}
    ]}
  ]
}
